Target: T1, Tyrosine-protein phosphatase non-receptor type 1 (PTP1B) (Homo sapiens, UniProt P18031)
T1 sequence (P18031 1-435): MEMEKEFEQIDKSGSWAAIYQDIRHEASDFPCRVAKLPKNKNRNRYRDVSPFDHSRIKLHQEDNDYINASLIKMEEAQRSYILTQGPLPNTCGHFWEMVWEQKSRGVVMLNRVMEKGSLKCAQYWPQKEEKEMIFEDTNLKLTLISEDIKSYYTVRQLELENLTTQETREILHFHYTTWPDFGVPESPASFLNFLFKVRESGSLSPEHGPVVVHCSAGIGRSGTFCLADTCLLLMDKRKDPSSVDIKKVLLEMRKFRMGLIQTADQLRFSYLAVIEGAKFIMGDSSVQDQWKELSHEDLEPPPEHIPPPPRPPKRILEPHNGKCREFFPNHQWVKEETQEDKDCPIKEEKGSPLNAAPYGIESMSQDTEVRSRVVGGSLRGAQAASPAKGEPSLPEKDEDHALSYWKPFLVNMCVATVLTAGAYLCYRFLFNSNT
Test: Enzyme activity assay (SAMDI-MS), PTP1B
Format: biochemical
Settings: 10 concentrations, 5 nM to 100 μM, compounds incubated with enzyme 30 min, result in words
Procedure: Enzyme screens were performed by SAMDI Tech (contract research organization); enzyme assays were performed in a 20 μL volume in 384-well low-volume polypropylene microtiter plates (Greiner Bio-One) at room temperature. The enzymes [Arginase 1 (ARG1), Lysine demethylase 4C (KDM4C), MAP/microtubule affinity-regulating kinase 4 (MARK4), Histone-Lysine N-methyltransferase (NSD2), Tyrosine-protein phosphatase non-receptor type 1 (PTP1B), and Sirtuin-3 (SIRT3)] were incubated with compounds for 30 min prior to initiation of the reaction by the addition of substrate and cofactors (if required). Reactions were quenched by the addition of 0.5% formic acid (final) with subsequent neutralization using 1% sodium bicarbonate (final). For SAMDI MS analysis, 2 μL of each reaction was transferred using a 384-channel automated liquid handler to SAMDI biochip arrays functionalized with a neutravidin-presenting self-assembled monolayer. The preparation of SAMDI biochip arrays has been previously described ([41], [42], [49]). The SAMDI arrays were incubated for 1 h in a humidified chamber to allow specific immobilization of the biotinylated substrates and products; they were then purified by washing with ultrafiltered water (50 μL/spot) and dried with compressed air. A matrix comprising α-Cyano-4-hydroxycinnamic acid in 80% acetonitrile: 20% aqueous ammonium citrate (10 mg/mL final) was applied in an automated format by dispensing 50 nL to each spot in the array. SAMDI MS was performed using reflector positive mode on an AB Sciex TOF-TOF 5800 System (AB Sciex, Framingham, MA) with 400 shots/spot analyzed in a random raster sampling. For data analysis, the area under the curves (AUCs) for the product peak and substrate peak were calculated using the TOF/TOF Series Explorer (AB Sciex), and the amount of product formed was calculated using the equation AUC product / (AUC product + AUC Substrate). Negative controls were pre-quenched with 0.5% formic acid (final). Lysozyme assay was performed using the manufacturer’s instructions (Biovision Lysozyme inhibitor screening kit K237). Flavonoids were acquired from Sigma-Aldrich and Seleckchem.
IC50 values of enzyme inhibition. Inhibition of the enzymes was measured at 10 concentration values in the range of 5 nM to 100 μM for each compound and enzyme, with two technical replicates; the percent inhibition values were determined by SAMDI software. Sigmoidal curves were fitted to the percent inhibition vs log10 (concentration) series, and IC50 values were determined at the crossing point of 50 % inhibition. […] First, for each IC50 value per compound and enzyme, a Z-score was calculated based on the log10 (IC50) value and that of the compounds that produced a successful readout for enzyme i , according to Equation 1: […]

O=c1c(O)c(-c2ccc(O)c(O)c2)oc2cc(O)cc(O)c12 [quercetin]
inhibition of enzyme activity, PTP1B (listed as Quercetin): inhibited
inhibition of enzyme activity, PTP1B (listed as Quercitin): concentration-dependent inhibition

C[C@@H]1O[C@@H](Oc2c(-c3ccc(O)c(O)c3)oc3cc(O)cc(O)c3c2=O)[C@H](O)[C@H](O)[C@H]1O [quercitrin]
inhibition of enzyme activity, PTP1B: did not affect

O=c1c(O[C@@H]2O[C@H](CO)[C@@H](O)[C@H](O)[C@H]2O)c(-c2ccc(O)c(O)c2)oc2cc(O)cc(O)c12 [isoquercitrin]
inhibition of enzyme activity, PTP1B: not

From article PMC12439166, “Dietary flavonoids form supramolecular assemblies, alter biochemistry, and enhance cell resilience” (Frontiers in Nutrition, 2025)
